This note sets out measurements from patent US20260132127A1, “NOVEL SPIRO COMPOUND” (MITSUBISHI TANABE PHARMA CORPORATION, priority 2021, published 2026).

SMILES strings stand for the structures. Bounds are passed on as bounds.

The experiment has as its target T1, human TRH-DE (Homo sapiens, UniProt Q9UKU6).
T1 construct: expressed in transfected cells; host or cells: Expi 293 cells (transient expression), membrane fraction
T1 sequence (Q9UKU6 1-1069): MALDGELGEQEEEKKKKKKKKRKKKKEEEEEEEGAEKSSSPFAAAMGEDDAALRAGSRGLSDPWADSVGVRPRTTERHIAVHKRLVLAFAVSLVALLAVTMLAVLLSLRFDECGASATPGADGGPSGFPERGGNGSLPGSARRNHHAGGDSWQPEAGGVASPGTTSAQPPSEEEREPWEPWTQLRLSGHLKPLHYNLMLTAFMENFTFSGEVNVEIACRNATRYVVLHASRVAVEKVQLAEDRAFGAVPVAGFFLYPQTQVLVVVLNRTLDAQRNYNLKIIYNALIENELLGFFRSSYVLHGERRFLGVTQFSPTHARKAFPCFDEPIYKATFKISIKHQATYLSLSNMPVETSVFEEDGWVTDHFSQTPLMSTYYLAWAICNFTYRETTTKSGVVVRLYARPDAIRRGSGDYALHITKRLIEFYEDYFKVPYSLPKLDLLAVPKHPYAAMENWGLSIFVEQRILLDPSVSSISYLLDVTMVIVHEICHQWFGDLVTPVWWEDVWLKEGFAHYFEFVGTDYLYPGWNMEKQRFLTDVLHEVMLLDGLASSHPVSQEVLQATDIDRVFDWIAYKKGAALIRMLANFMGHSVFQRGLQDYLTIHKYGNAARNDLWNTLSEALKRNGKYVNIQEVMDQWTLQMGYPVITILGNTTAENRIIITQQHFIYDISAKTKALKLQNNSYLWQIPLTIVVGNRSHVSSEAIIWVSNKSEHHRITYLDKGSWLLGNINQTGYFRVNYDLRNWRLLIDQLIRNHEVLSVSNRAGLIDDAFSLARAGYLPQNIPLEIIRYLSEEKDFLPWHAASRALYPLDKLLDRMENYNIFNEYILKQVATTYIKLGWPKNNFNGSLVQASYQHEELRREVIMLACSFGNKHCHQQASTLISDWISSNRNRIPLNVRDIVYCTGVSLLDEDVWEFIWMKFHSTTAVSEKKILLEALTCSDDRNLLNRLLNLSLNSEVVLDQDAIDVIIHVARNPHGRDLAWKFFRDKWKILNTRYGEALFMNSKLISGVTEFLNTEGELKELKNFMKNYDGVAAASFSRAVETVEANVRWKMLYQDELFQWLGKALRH
The experiment in a line: TRH-DE inhibition test (RapidFire MS measurement of product Cyclo (His-Pro)). The format is biochemical. Particulars: membrane fraction of Expi 293 cells expressing human TRH-DE; 10 μM TRH substrate; room temperature, 2 hours; 16-point concentration test. Put shortly:
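Inhibition derived from product/internal-standard ratios of Cyclo(His-Pro), quantified by RapidFire triple-quadrupole MS after acetonitrile:methanol quench, with IC50 fitted over 16 concentrations. Enzyme source: membranes of Expi 293 cells transiently expressing human TRH-DE, 4 μg/ml, pH 7.4 phosphate buffer. Incubation with 10 μM substrate ran 2 h at room temperature.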

With `Cc1nc2c(s1)C(=O)N(C1CC3(C1)CN(S(=O)(=O)c1ccccc1F)C3)C(C)CO2` (racemic) [Example 174], the IC50 is 19 nM.

Molecule `C[C@@H]1COc2nc(C(F)F)sc2C(=O)N1C1CC2(C1)CN(S(=O)(=O)c1ccccc1F)C2` [Example 176] gave an IC50 of 13 nM.

`C[C@@H]1Cn2nc(C3CC3)cc2C(=O)N1C1CC2(C1)CN(S(=O)(=O)c1ccccc1F)C2` [Example 225]: the IC50 was 11 nM. The IC50 values of the last two molecules are within 1.5-fold of each other.

Consider `C[C@@H]1COc2cc(N3CCC(F)(F)CC3)ncc2C(=O)N1C1CC2(C1)CN(S(=O)(=O)c1ccccc1F)C2` [Example 156], for which the IC50 was determined as 2 nM. Compared with the last molecule, the IC50 is about 5.5-fold lower.

As for `C[C@@H]1COc2nc(N3CC[C@@H](C#N)C3)ncc2C(=O)N1C1CC2(C1)CN(S(=O)(=O)c1ccccc1F)C2` [Example 402], 3 nM corresponded to half-maximal inhibition (IC50).

`C[C@@H]1COc2nc(C3CC3)sc2C(=O)N1C1CC2(C1)CN(S(=O)(=O)c1ccccc1F)C2` [Example 180] came in with an IC50 of 4 nM.

`CC1(O)c2cnccc2C(=O)N1C1CC2(C1)CN(S(=O)(=O)c1ccccc1F)C2` (racemic) [Example 282] displayed an IC50 of 124 nM. This IC50 lies about 31-fold higher than the previous one.

Consider `C[C@@H]1CC[C@H](C)N(C2CC3(C2)CN(S(=O)(=O)c2ccccc2F)C3)C(=O)C1` (racemic) [Example 436, (4R*,7S*)-1-[2-(2-fluorophenyl)sulfonyl-2-azaspiro[3.3]heptan-6-yl]-4,7-dimethylazepan-2-one], for which the IC50 was found to be 33 nM.

The molecule `C[C@@H]1CCn2c(C3CC3)nc(C(F)F)c2C(=O)N1C1CC2(C1)CN(S(=O)(=O)c1ccccc1F)C2` [Example 342, (7R)-3-cyclopropyl-1-(difluoromethyl)-8-[2-(2-fluorophenyl)sulfonyl-2-azaspiro[3.3]heptan-6-yl]-7-methyl-6,7-dihydro-5H-imidazo[1,5-a][1,4]diazepin-9-one] showed an IC50 of 50 nM.

The molecule `C[C@@H]1Cn2nc(Cl)cc2C(=O)N1C1CC2(C1)CN(S(=O)(=O)c1ccccc1F)C2` [Example 223] registered an IC50 of 18 nM.

Turning to `C[C@@H]1COc2nc([C@H]3C[C@@H]3F)sc2C(=O)N1C1CC2(C1)CN(S(=O)(=O)c1ccccc1F)C2` [Example 237, (6R)-2-[(1S,2S)-2-fluorocyclopropyl]-7-[2-(2-fluorophenyl)sulfonyl-2-azaspiro[3.3]heptan-6-yl]-6-methyl-5,6-dihydrothiazolo[5,4-f][1,4]oxazepin-8-one], the half-inhibitory concentration (IC50) turned out to be 3 nM.

For the molecule `Cc1cnc2c(c1)C(=O)N(C1CC3(C1)CN(S(=O)(=O)c1ccccc1F)C3)C(C)CO2` (racemic) [Example 30], the IC50 is 15 nM.

In turn, `Cc1ccc2c(n1)OCC(C)N(C1CC3(C1)CN(S(=O)(=O)c1ccccc1F)C3)C2=O` (racemic) [Example 31] had an IC50 of 9 nM.

Take `C[C@@H]1CCn2c(nnc2C(C)(C)C)C(=O)N1C1CC2(C1)CN(S(=O)(=O)c1ccccc1F)C2` [Example 262]: the midpoint of inhibition, the IC50, lay at 91 nM.

With `C[C@@H]1COc2cc(NC3CCCC3)ncc2C(=O)N1C1CC2(C1)CN(S(=O)(=O)c1ccccc1F)C2` [Example 136], the IC50 stood at 1 nM. Compared with the last molecule, the IC50 is about 91-fold lower.

With `CC1CCC(=O)N(C2CC3(C2)CN(S(=O)(=O)c2ccccc2F)C3)C(C)C1` (racemic) [Example 439], the IC50 amounted to 124 nM.

With `Cc1ccccc1S(=O)(=O)N1CC2(CC(N3C(=O)c4cccnc4OCC3C)C2)C1` (racemic) [Example 76], the IC50 worked out at 566 nM.

Molecule `C[C@@H]1Cn2nc(F)c(C3CC3)c2C(=O)N1C1CC2(C1)CN(S(=O)(=O)c1ccccc1F)C2` [Example 327] showed an IC50 of 6 nM.

The molecule `Cc1nsc2c1C(=O)N(C1CC3(C1)CN(S(=O)(=O)c1ccccc1F)C3)[C@H](C)CC2` [Example 100] had an IC50 of 16 nM.

Molecule `CC1c2cc(F)ccc2C(=O)N1C1CC2(C1)CN(S(=O)(=O)c1ccccc1F)C2` (racemic) [Example 269] returned an IC50 of 134 nM.

Take `Cc1nc2c(s1)C(=O)N(C1CC3(C1)CN(S(=O)(=O)c1ccccc1F)C3)[C@H](C)C=C2` [Example 116]: the midpoint of inhibition, the IC50, lay at 116 nM.

With `C[C@@H]1COc2cc(N(C)Cc3ccccc3)ncc2C(=O)N1C1CC2(C1)CN(S(=O)(=O)c1ccccc1F)C2` [Example 139], the IC50 was 2 nM.

The molecule `CC1COc2ccncc2C(=O)N1C1CC2(C1)CN(S(=O)(=O)c1ccccc1F)C2` (racemic) [Example 51] gave an IC50 of 8 nM.

For `Cc1ccnc2c1C(=O)N(C1CC3(C1)CN(S(=O)(=O)c1ccccc1F)C3)C(C)CO2` (racemic) [Example 29], the IC50 worked out at 50 nM.

In the case of `C[C@@H]1COc2cc(N3C[C@H]4C[C@H]4C3)ncc2C(=O)N1C1CC2(C1)CN(S(=O)(=O)c1ccccc1F)C2` [Example 148], the IC50 was under 1 nM.

`C[C@@H]1COc2cc(N3CCCOCC3)ncc2C(=O)N1C1CC2(C1)CN(S(=O)(=O)c1ccccc1F)C2` [Example 160] yielded an IC50 of 1 nM.

In turn, `CC1CN(c2ncc3c(n2)OC[C@@H](C)N(C2CC4(C2)CN(S(=O)(=O)c2ccccc2F)C4)C3=O)CCO1` (mixture of isomers) [Example 386] had an IC50 of 13 nM.

As to `C[C@@H]1COc2nc(N3CC4(COC4)C3)ncc2C(=O)N1C1CC2(C1)CN(S(=O)(=O)c1ccccc1F)C2` [Example 407], the IC50 stood at 5 nM.

With `C[C@@H]1COc2nc(N3CC[C@H](F)C3)ncc2C(=O)N1C1CC2(C1)CN(S(=O)(=O)c1ccccc1F)C2` [Example 169], the half-inhibitory concentration (IC50) stood at 1 nM.

As for `CCCN(C(=O)c1cccnc1OC)C1CC2(C1)CN(S(=O)(=O)c1cc(OC)ccc1F)C2` [Example 421], inhibition was half-maximal at 480 nM (IC50).

For the molecule `COc1cccc(S(=O)(=O)N2CC3(CC(N4C(=O)c5cccnc5OCC4C)C3)C2)c1` (racemic) [Example 74], the IC50 turned out to be 918 nM.

With `CCCN(C(=O)c1cccnc1OC)C1CC2(C1)CN(S(=O)(=O)c1sccc1C)C2` [Example 417], the 50% inhibitory concentration (IC50) was determined as 690 nM. This IC50 and that of the molecule before are within 1.5-fold of each other.

As for `CCC(=O)N1C[C@@H](C)N(C2CC3(C2)CN(S(=O)(=O)c2ccccc2F)C3)C(=O)c2ncccc21` [Example 303], the IC50 was determined as 82 nM. Against the preceding molecule, the IC50 is about 8.4-fold lower.

`CCCN(C(=O)c1ccccc1OC)C1CC2(C1)CN(S(=O)(=O)c1cccc(C)c1)C2` [Example 425] showed a half-inhibitory concentration (IC50) of 860 nM.

For the molecule `Cc1nc2c(cc1C#N)C(=O)N(C1CC3(C1)CN(S(=O)(=O)c1ccccc1F)C3)[C@H](C)CO2` [Example 334], the IC50 worked out at 18 nM. Against the preceding molecule, the IC50 is about 48-fold lower.

`C[C@@H]1COc2nc(F)ccc2C(=O)N1C1CC2(C1)CN(S(=O)(=O)c1ccccc1F)C2` [Example 42]: inhibition was half-maximal at 9 nM (IC50).

With `CC1c2cccnc2C(=O)N1C1CC2(C1)CN(S(=O)(=O)c1ccccc1F)C2` (single isomer, unassigned) [Example 360], the half-maximal inhibitory concentration (IC50) was 86 nM.

In the case of `Cc1ccsc1S(=O)(=O)N1CC2(CC(N3C(=O)c4cccnc4OCC3C)C2)C1` (stereo not drawn) [Example 413], inhibition was half-maximal at 183 nM (IC50).

The molecule `CC1C=Cc2nc(C(F)(F)F)sc2C(=O)N1C1CC2(C1)CN(S(=O)(=O)c1ccccc1F)C2` (racemic) [Example 118] returned an IC50 of 25 nM.

As to `Cc1c2c(nn1C)OC[C@@H](C)N(C1CC3(C1)CN(S(=O)(=O)c1ccccc1F)C3)C2=O` [Example 211], the IC50 is 13 nM.

Take `C[C@@H]1COc2cc(N3CCOCC3)ncc2C(=O)N1C1CC2(C1)CN(S(=O)(=O)c1ccccc1F)C2` [Example 134, (3R)-4-[2-(2-fluorophenyl)sulfonyl-2-azaspiro[3.3]heptan-6-yl]-3-methyl-8-morpholino-2,3-dihydropyrido[3,4-f][1,4]oxazepin-5-one]: the IC50 amounted to 2 nM.

In turn, `C[C@@H]1COc2ncc(Br)cc2C(=O)N1C1CC2(C1)CN(S(=O)(=O)c1ccccc1F)C2` [Example 171] gave an IC50 of 7 nM. Against the preceding molecule, the IC50 is about 3.5-fold higher.

In turn, `CC1COc2ccnc(C(F)(F)F)c2C(=O)N1C1CC2(C1)CN(S(=O)(=O)c1ccccc1F)C2` (racemic) [Example 23] displayed an IC50 of 68 nM.

In the case of `CC(C)Oc1ncc2c(n1)OC[C@@H](C)N(C1CC3(C1)CN(S(=O)(=O)c1ccccc1F)C3)C2=O` [Example 369, (7R)-6-[2-(2-fluorophenyl)sulfonyl-2-azaspiro[3.3]heptan-6-yl]-7-methyl-2-propan-2-yloxy-7,8-dihydropyrimid[5,4-f][1,4]oxazepin-5-one], the IC50 stood at 8 nM. Compared with the last molecule, the IC50 is about 8.5-fold lower.

`C[C@@H]1C=Cc2nc(C3(F)CC3)sc2C(=O)N1C1CC2(C1)CN(S(=O)(=O)c1ccccc1F)C2` [Example 121]: half-maximal inhibition (IC50) was put at 21 nM.

As a reminder, the IC50 is the concentration that inhibits the measured activity by half.
